This test relates to MAFbx mRNA. The test is described as follows: MAFbx mRNA half-life after actinomycin in C2C12.AR cells. Type of test: cell-based, mouse. As for the experimental part: (A) Rats were administered test agents as indicated in the figure for 7-days, at which time animals were sacrificed and MAFbx expression was determined in gastrocnemius muscles by qPCR. Data are mean values±SEM for at least 8 animals. * p<0.05 vs vehicle, t-test. (B) AR6 cells were seeded into 6-well plates and incubated overnight in growth medium. Medium was replaced with DMEM containing 2% horse serum followed by incubation for an additional 48 hours. Hormones or vehicle (EtOH) were added to the medium and cells were incubated overnight, at which time MAFbx mRNA levels were determined by qPCR and expressed as fold-induction versus levels in cells incubated with EtOH. Data are mean values±SEM for three determinations each performed in triplicate. * p<0.05 vs. EtOH (ANOVA). (C) Effect of testosterone on MAFbx mRNA half-life. C2C12.AR cells were incubated overnight in growth medium supplemented with testosterone or vehicle (EtOH). […] Levels of MAFbx mRNA are expressed as a percentage of those at time zero. […]
RNA was quantified by absorbance at 260 nm. […] Relative changes in expression were determined using the 2^−ΔΔCt method. Taqman Assay on Demand probes (Applied Biosystems) were used for all assays except rat 18S RNA, which was quantified using the following Assay on Demand Probes: Forward: […] […]

For `C[C@]12CC[C@H]3[C@@H](CCC4=CC(=O)CC[C@@]43C)[C@@H]1CC[C@@H]2O` [testosterone], the “half-life of MAFbx mRNA versus absence of testosterone” value is listed as “not significantly different”.

These data come from patent US7429482B2, “Screening tools for discovery of novel anabolic agents” (United States of America as represented by the Department …, priority 2005, dated 2008).
